Values quoted from earlier work, collected in PMC4138103 (PLoS ONE, 2014).
Read-outs that look alike come from different tables or passages of the source.

Test system: Sprague-Dawley rats
Set-up: method as in Roos et al., 2011
Conditions: group mean, ref Roos et al., 2011, cited from earlier work

In the case of `Clc1cc(Cl)c(-c2cc(Cl)c(Cl)c(Cl)c2Cl)cc1Cl` [PCB 180, 2,2′,3′,4,4′,5,5′-heptachlorobiphenyl], the Body weight (females, total dose 3 mg/kg bw) is given as 215 g, the Body weight (females, total dose 10 mg/kg bw) is given as 210 g and the Body weight (females, total dose 30 mg/kg bw) is given as 213 g. For the same compound, the Body weight (females, total dose 100 mg/kg bw) was 211 g, the Body weight (females, total dose 300 mg/kg bw) was 212 g and the Body weight (females, total dose 1000 mg/kg bw) was 213 g. For the same compound, the Body weight (females, total dose 1700 mg/kg bw) was 208 g, the Body weight (males, total dose 3 mg/kg bw) was 306 g and the Body weight (males, total dose 10 mg/kg bw) was 321 g. For the same compound, the Body weight (males, total dose 30 mg/kg bw) was 324 g, the Body weight (males, total dose 100 mg/kg bw) was 322 g and the Body weight (males, total dose 300 mg/kg bw) was 325 g. For the same compound, the Body weight (males, total dose 1000 mg/kg bw) was 315 g and the Body weight (males, total dose 1700 mg/kg bw) was 310 g.
